# Assay results published in PMC6249242, “Metabolic engineering of Escherichia coli for de novo biosynthesis of vitamin B12” (Nature Communications, 2018).
# B1: RcCobC (Rhodobacter capsulatus SB 1003) (protein)
# chain: MRDHGGNSDAARAQYGGEDWIDLSTGINRQPWPVPDLPAHVWTDLPTATAKAALLDAAAAAFGTPAPGVALAGAQQAIQLIPRLWAPGRARVLGPTYNEHAAALRAAGWQVEEVSTLGALAGADLAVVVNPNNPDGQRHPAAALRALSLQVGRLVVDESFADASPAASVTAKASRRMLVLRSFGKFYGLAGLRLGFVFADAATVAALSEMAGPWPVSGPALEIGRRALLDRNWAMATALRLGAETMRMDALAARAGWRLVGGTALFRTYATPDAAAAQDHLARARIWSRVFPYAADWLRLGLPGNESEWMRLEKALTNEL
# Experiments:
# [1] = target: T1, BluE (Rhodobacter capsulatus, UniProt D5AV17); assay: crude enzyme kinase assay, LC-MS of L-threonine phosphate; also in vivo HPLC; format: biochemical
# T1 construct: gene RCAP_rcc02055
# [2] = target: CobB (Rhodobacter capsulatus, UniProt O68108); assay: in vitro amidation, LC-MS of HBAD; format: biochemical
# [3] = substrate: C[C@@H](OP(=O)(O)O)[C@H](N)C(=O)O; assay: purified protein; details: pH 6.8 PIPES, 37 °C, 500 µM pyridoxal phosphate (standard assay), substrate taken from the assay description
# Chain of CobB (O68108 whole entry): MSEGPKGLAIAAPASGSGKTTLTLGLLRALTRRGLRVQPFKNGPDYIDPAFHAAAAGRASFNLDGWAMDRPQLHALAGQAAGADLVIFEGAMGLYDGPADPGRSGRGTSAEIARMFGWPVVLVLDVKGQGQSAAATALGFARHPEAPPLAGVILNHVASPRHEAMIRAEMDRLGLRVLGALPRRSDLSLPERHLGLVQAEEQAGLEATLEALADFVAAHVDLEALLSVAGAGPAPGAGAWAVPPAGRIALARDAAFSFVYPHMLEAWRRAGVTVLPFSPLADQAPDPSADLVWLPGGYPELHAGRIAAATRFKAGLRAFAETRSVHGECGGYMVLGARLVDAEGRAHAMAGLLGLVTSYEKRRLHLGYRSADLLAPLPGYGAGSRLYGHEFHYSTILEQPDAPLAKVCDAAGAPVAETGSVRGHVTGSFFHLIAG
# T1 sequence (D5AV17 entry or part of it): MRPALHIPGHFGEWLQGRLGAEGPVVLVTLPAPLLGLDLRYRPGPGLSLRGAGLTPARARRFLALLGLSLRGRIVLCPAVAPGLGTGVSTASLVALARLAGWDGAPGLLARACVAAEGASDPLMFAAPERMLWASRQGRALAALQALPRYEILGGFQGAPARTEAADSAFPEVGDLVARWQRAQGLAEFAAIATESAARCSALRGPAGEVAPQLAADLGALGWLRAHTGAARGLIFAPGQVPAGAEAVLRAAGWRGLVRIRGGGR
molecule,measurement,setting,value
C[C@@H](O)[C@H](N)C(=O)O [L-threonine],"crude enzyme kinase assay, LC-MS of L-threonine phosphate; also in vivo HPLC",[1],crude BluE activity was confirmed via an in vitro assay
C/C1=C2N=C(/C=C3\N/C(=C(/C)C4=NC(C)(C5N=C1C(C)(CCC(=O)O)C5CC(=O)O)C(C)(CC(=O)O)C4CCC(=O)O)C(C)(CC(=O)O)C3CCC(=O)O)C(C)(C)C/2CCC(=O)O (stereo not drawn) [hydrogenobyrinic acid],"in vitro amidation, LC-MS of HBAD",[2],it was completely converted to HBAD by CobB enzyme from R. capsulatus in vitro
B1,Km,[3],1890 µM
